From patent publication US9067948B2 (Nimbus Iris, Inc., priority 2012, dated 2015)

biological target: T1, IRAK-4 (Homo sapiens, UniProt Q9NWZ3); experiment: IRAK-4 activity inhibition assay (Caliper); assay type: biochemical; conditions: 3.5 nM IRAK4, 37 μM ATP, 1.5 μM Peptide 8, 28° C. 40 minutes
T1 sequence (Q9NWZ3 1-460): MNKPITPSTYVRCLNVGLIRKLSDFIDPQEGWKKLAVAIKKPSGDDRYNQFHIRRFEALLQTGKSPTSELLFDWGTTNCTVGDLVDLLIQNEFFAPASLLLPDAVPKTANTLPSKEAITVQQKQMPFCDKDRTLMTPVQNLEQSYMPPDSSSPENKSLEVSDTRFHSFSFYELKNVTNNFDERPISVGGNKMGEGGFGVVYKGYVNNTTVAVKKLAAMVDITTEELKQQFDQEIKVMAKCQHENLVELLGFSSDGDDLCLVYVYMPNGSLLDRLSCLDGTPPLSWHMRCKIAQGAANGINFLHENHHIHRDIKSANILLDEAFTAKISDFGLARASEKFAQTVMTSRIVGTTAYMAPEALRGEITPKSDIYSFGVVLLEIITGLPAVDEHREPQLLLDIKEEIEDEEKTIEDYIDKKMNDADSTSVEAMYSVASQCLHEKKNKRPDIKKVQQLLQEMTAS
Method: A 1× kinase base buffer was prepared from 50 mM HEPES, pH 7.5 and 0.0015% Brij-35. A stop buffer was prepared from 100 mM HEPES, pH 7.5, 0.015% Brij-35, 0.2% Coating Reagent #3, and 50 mM EDTA.
Test compound was diluted to 50× of the final desired highest inhibitor concentration in reaction by 100% DMSO. 100 ul of this compound dilution was transferred to a well in a 96-well plate.
Test compound was serially diluted by transferring 30 μl to 60 μl of 100% DMSO in the next well and so forth for a total of 10 concentrations. 100 μl of 100% DMSO was added to two empty wells for no compound control and no enzyme control in the same 96-well plate.
A new 96-well plate was marked as intermediate plate. 5 μl of compound serial dilution was transferred from source plate to the corresponding wells of the intermediate plate. 45 μl of 1× kinase base buffer (KB buffer) was added to each well of the intermediate plate. The intermediate plate was placed for 10 min on a shaker.
5 μl of each well was transferred from the 96-well intermediate plate to a 384-well plate in duplicates. For example, A1 of the 96-well plate is transferred to A1 and A2 of the 384-well plate. A2 of the 96-well plate is transferred to A3 and A4 of the 384-well plate, and so on.
IRAK4 and DTT in 1× kinase base buffer was added. The 2.5× enzyme mix contained 8.8 nM IRAK4 and 5 mM DTT.
Peptide 8, ATP, MgCl2 and MnCl2 were added in the 1× kinase base buffer. The 2.5× peptide mix contained 3.75 μM peptide 8, 92.5 μM ATP, 12.5 mM MgCl2 and 2.5 mM MnCl2.
Assay plate already contained 5 μl of compound in 10% DMSO. Added 10 μl of 2.5× enzyme solution to each well of the 384-well assay plate, except no enzyme control wells. The final concentration of IRAK4 in reaction was 3.5 nM. Added 10 μl of 1× kinase base buffer to no enzyme control wells in the assay plate. Incubated at room temperature for 10 min.
Added 10 μl of 2.5× peptide solution to each well of the 384-well assay plate. The final concentration of Peptide 8 and ATP was 1.5 μM and 37 μM, respectively. Incubated at 28° C. for 40 minutes. Added 25 μl of stop buffer to stop reaction. Collected data on Caliper.
Copied conversion % data from Caliper program. Converted conversion % values to percent inhibition values. Percent inhibition=(max−conversion %)/(max−min)*100, where “max” means the conversion % of DMSO control and “min” means the conversion % of no enzyme control.

| Compound | IC50 [µM] |
| --- | --- |
| CN(C)[C@H]1CC[C@H](Oc2ccnc3sc4c(c23)CCC4)CC1 [Compound I-1] | ≤ 5 |
| c1cc(N[C@H]2CC[C@H](N3CCOCC3)CC2)c2c3c(sc2n1)CCC3 [Compound I-2] | ≤ 5 |
| c1cc(O[C@H]2CC[C@H](N3CCOCC3)CC2)c2c3c(sc2n1)CCC3 [Compound I-3] | ≤ 5 |
| CN(C)[C@H]1CC[C@H](Nc2ccnc3sc4c(c23)CCC4)CC1 [Compound I-4, 1-N,1-N-dimethyl-4-N-[7-thia-9-azatricyclo[6.4.0.0^[2,6]]dodeca-1(12),2(6),8,10-tetraen-12-yl]cyclohexane-1,4-diamine] | ≤ 5 |
| N[C@H]1CC[C@H](Nc2ccnc3sc4c(c23)CCC4)CC1 [Compound I-205] | ≤ 5 |
| CN[C@H]1CC[C@H](Nc2ccnc3sc4c(c23)CCC4)CC1 [Compound I-206, 1-N-methyl-4-N-[7-thia-9-azatricyclo[6.4.0.0[2,6]]dodeca-1(12),2(6),8,10-tetraen-12-yl]cyclohexane-1,4-diamine] | ≤ 5 |
| CN(CC(=O)N1CCCC1)[C@H]1CC[C@H](Nc2ccnc3sc4c(c23)CCC4)CC1 [Compound I-207, 2-[methyl[4-([7-thia-9-azatricyclo[6.4.0.0[2,6]]dodeca-1(8),2(6),9,11-tetraen-12yl]amino)cyclohexyl]amino]-1-(pyrrolidin-1-yl)ethan-1-one] | ≤ 5 |
| Cn1cc(Nc2cc(N[C@H]3CC[C@H](N4CCOCC4)CC3)c3c4c(sc3n2)CCC4)cn1 [Compound I-208, N2-(1-methyl-1H-pyrazol-4-yl)-N4-((1r,4r)-4-morpholinocyclohexyl)-6,7-dihydro-5H-cyclopenta[4,5]thieno[2,3-b]pyridine-2,4-diamine] | 20 to 50 |
